Measurements as given in publication PMC6713262 (Cell, 2019).
Like-named read-outs stand apart in the source and are kept apart here.

Target: crystallized CB2 construct (CB2-T4L) (Homo sapiens, UniProt P34972, D228Y/G225M/G233N/G304E/G78L/H226L/INS221[…]/INS227[…]/INS235[…]/M234R/R229N/R242E/S224R/T127A/T153L/V231T)
Test: Radioligand competition binding with [3H]-CP55,940, crystallized CB2 construct

Compound	Effect of construct modifications on binding affinity of CB2 (T4L fusion, five mutations, N/C-terminal truncation, Figure S1F)	Effect of construct modifications on binding affinity of CB2
Cc1c(C(=O)NC23CC4CC(CC(C4)C2)C3)nn(CCCCCO)c1-c1ccccc1 [AM10257, 1-(5-Hydroxypentyl)-4-methyl-5-phenyl-N-tricyclo[3.3.1.1^3,7]dec-1-yl-1H-pyrazole-3-carboxamide]	little effect	–
SR144528 [reference compound]	–	little effect
